Results published in the supplement of paper PMC10307832.

Experiments:
Assay in all cases: relative viability (nuclei count vs DMSO), 5 days (fraction); higher = more cells survive
[1] = compound: C1/C(=C\C2=CC=CS2)/C(=O)/C(=C/C3=CC=CS3)/C1 + NC(=O)Nc1cc(-c2cccc(F)c2)sc1C(=O)N[C@H]1CCCNC1 [AZD7762] (partner 0.2 µM)
Outline: (§1)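 Nuclei were stained with Hoechst during a one-step fixation (final 0.05% Triton X-100, 1% formaldehyde, 1 ug/ml Hoechst) carried out 5 days after dosing, then counted on 4× images. The cells, lung cancer lines in 1536-well plates, had been dosed by pin tool the day after seeding with one drug alone or a fixed anchor-drug dose plus five library-drug doses (not always all listed) in √10 steps. Relative viability is the nuclei count in treated wells divided by that in vehicle wells, and each value is the median of duplicate plates.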

TPCA-1 + Palbociclib = compound: C1=CC(=CC=C1C2=CC(=C(S2)NC(=O)N)C(=O)N)F [TPCA-1] + CC(=O)c1c(C)c2cnc(Nc3ccc(N4CCNCC4)cn3)nc2n(C2CCCC2)c1=O [Palbociclib] (partner 0.5 µM)
Outline: as §1

TPCA-1 + Linsitinib = compound: C1=CC(=CC=C1C2=CC(=C(S2)NC(=O)N)C(=O)N)F [TPCA-1] + C[C@]1(O)C[C@@H](c2nc(-c3ccc4ccc(-c5ccccc5)nc4c3)c3c(N)nccn32)C1 [Linsitinib] (partner 1 µM)
Outline: as §1

[2] = compound: C[C@]12O[C@H](C[C@]1(O)CO)n1c3ccccc3c3c4c(c5c6ccccc6n2c5c31)CNC4=O [Lestaurtinib] + CC(=O)c1c(C)c2cnc(Nc3ccc(N4CCNCC4)cn3)nc2n(C2CCCC2)c1=O [Palbociclib] (partner 0.5 µM)
Outline: as §1

Row | Cell Line | relative viability ([1]; first compound 0.2 µM) | relative viability ([1]; first compound 0.6325 µM) | relative viability ([1]; first compound 2 µM) | relative viability ([1]; first compound 6.325 µM) | relative viability ([1]; first compound 20 µM) | relative viability (TPCA-1 + Palbociclib; first compound 0.1265 µM) | relative viability (TPCA-1 + Palbociclib; first compound 0.4 µM) | relative viability (TPCA-1 + Palbociclib; first compound 1.265 µM) | relative viability (TPCA-1 + Palbociclib; first compound 4 µM) | relative viability (TPCA-1 + Linsitinib; first compound 0.04 µM) | relative viability (TPCA-1 + Linsitinib; first compound 0.1265 µM) | relative viability (TPCA-1 + Linsitinib; first compound 0.4 µM) | relative viability (TPCA-1 + Linsitinib; first compound 1.265 µM) | relative viability (TPCA-1 + Linsitinib; first compound 4 µM) | relative viability ([2]; first compound 0.005 µM) | relative viability ([2]; first compound 0.01581 µM) | relative viability ([2]; first compound 0.05 µM) | relative viability ([2]; first compound 0.1581 µM) | relative viability ([2]; first compound 0.5 µM) | relative viability (TPCA-1 + Palbociclib; first compound 0.04 µM)
1 | HCC-366 | 0.297 | 0.347 | 0.215 | 0.241 | 0.145 | 0.346 | 0.397 | 0.328 | 0.192 | 0.72 | 0.568 | 0.807 | 0.458 | 0.427 | 0.371 | 0.424 | 0.471 | 0.391 | 0.172 | 
2 | HCC-827 | 0.21 | 0.192 | 0.245 | 0.226 | 0.245 | 0.407 | 0.521 | 0.413 | 0.278 | 0.934 | 0.889 | 0.935 | 0.932 | 0.806 | 0.533 | 0.489 | 0.444 | 0.382 | 0.43 | 0.487
3 | HOP-62 | 0.661 | 0.688 | 0.657 | 0.385 | 0.692 | 0.458 | 0.497 | 0.418 | 0.466 | 0.96 | 0.676 | 0.921 | 1.12 | 0.973 | 0.491 | 0.539 | 0.496 | 0.468 | 0.335 | 0.483
4 | IA-LM |  |  |  |  |  |  |  |  |  | 0.75 | 0.411 | 0.47 | 0.259 | 0.378 |  |  |  |  |  | 
5 | LC-2-ad | 0.871 | 0.899 | 0.871 | 0.72 | 0.825 | 0.465 | 0.49 | 0.489 | 0.421 | 0.92 | 0.71 | 0.833 | 0.807 | 0.331 | 0.59 | 0.527 | 0.418 | 0.429 | 0.293 | 0.467
6 | NCI-H520 |  |  |  |  |  | 0.162 | 0.164 | 0.282 | 0.232 | 1.16 | 0.832 | 0.989 | 0.838 | 0.921 | 0.262 | 0.234 | 0.201 | 0.171 | 0.158 | 0.281
7 | NCI-H522 | 0.936 | 0.809 | 0.822 | 0.9 | 0.94 | 0.978 | 1.06 | 1.04 | 0.953 |  |  |  |  |  | 0.998 | 1 | 0.879 | 0.871 | 0.631 | 1.15
8 | NCI-H596 | 1.12 | 1.12 | 1.13 | 0.659 | 1.02 |  |  |  |  | 1.14 | 1.05 | 1.13 | 1.11 | 1.14 |  |  |  |  |  | 
9 | NCI-H661 |  |  |  |  |  | 0.397 | 0.411 | 0.399 | 0.378 | 0.524 | 0.487 | 0.706 | 0.534 | 0.411 | 0.423 | 0.413 | 0.445 | 0.467 | 0.317 | 0.413
10 | NCI-H1299 |  |  |  |  |  |  |  |  |  | 1.13 | 0.904 | 0.942 | 0.777 | 1.01 |  |  |  |  |  | 
11 | NCI-H1563 |  |  |  |  |  |  |  |  |  | 1.2 | 1.23 | 1.17 | 1.12 | 1.16 |  |  |  |  |  | 
12 | NCI-H1648 | 0.778 | 0.622 | 0.571 | 0.601 | 0.511 | 0.245 | 0.262 | 0.254 | 0.199 |  |  |  |  |  |  | 0.317 |  | 0.393 | 0.466 | 0.254
13 | NCI-H1650 |  |  |  |  |  | 0.309 | 0.408 | 0.474 | 0.354 |  |  |  |  |  | 0.353 | 0.433 | 0.356 | 0.396 | 0.245 | 0.323
14 | NCI-H1703 | 0.121 | 0.176 | 0.148 | 0.119 | 0.128 |  |  |  |  | 1.01 | 0.627 | 0.947 | 0.546 | 0.308 |  |  |  |  |  | 
15 | NCI-H2009 |  |  |  |  |  | 0.204 | 0.25 | 0.174 | 0.19 | 1.25 | 1.18 | 1.11 | 1.19 | 1.06 | 0.221 | 0.226 | 0.183 | 0.194 | 0.133 | 0.254
16 | NCI-H2023 |  |  |  |  |  | 0.394 | 0.444 | 0.37 | 0.165 | 0.706 | 0.721 | 0.765 | 0.559 | 0.409 | 0.402 | 0.316 | 0.384 | 0.261 | 0.121 | 0.366
17 | NCI-H2170 | 0.921 | 0.923 | 0.866 | 0.714 | 0.764 | 0.404 | 0.417 | 0.391 | 0.275 |  |  |  |  |  | 0.325 | 0.379 | 0.275 | 0.394 | 0.218 | 0.413
18 | NCI-H2228 |  |  |  |  |  | 0.593 | 0.801 | 0.543 | 0.308 | 0.789 | 0.723 | 0.627 | 0.825 | 0.455 | 1.03 | 1.05 | 0.407 | 0.28 | 0.275 | 0.865
19 | NCI-H2342 | 0.484 | 0.537 | 0.718 | 0.483 | 0.363 | 0.546 | 0.535 | 0.534 | 0.547 |  |  |  |  |  | 0.518 | 0.439 | 0.545 | 0.526 | 0.504 | 0.461
20 | SK-LU-1 |  |  |  |  |  | 0.367 | 0.368 | 0.347 | 0.235 | 1.19 | 1.07 | 1.11 | 0.681 | 0.425 | 0.333 | 0.335 | 0.356 | 0.3 | 0.288 | 0.363
21 | SK-MES-1 |  |  |  |  |  | 0.333 | 0.325 | 0.319 | 0.327 | 1.17 | 0.985 | 1.01 | 0.859 | 0.634 | 0.329 | 0.324 | 0.266 | 0.337 | 0.228 | 0.346
22 | SW 900 | 0.74 | 0.665 | 0.628 | 0.495 | 0.602 |  | 0.676 | 0.566 | 0.537 |  |  |  |  |  | 0.561 | 0.666 | 0.611 | 0.828 | 0.595 | 
23 | SW 1573 |  |  |  |  |  | 0.396 | 0.396 | 0.395 | 0.407 | 1.03 | 0.881 | 0.807 | 0.802 | 0.643 | 0.373 | 0.385 | 0.298 | 0.306 | 0.113 | 0.429
